Values of other authors in patent US20250170094A1 (priority 2023, published 2025).
Where two headings read alike, the source gives them in different places.

Legend:
[1] = not given; remark: listed apart in the source

For `CCC(CC)[C@H](NC(C)=O)[C@@H]1[C@H](O)[C@@H](C(=O)O)C[C@H]1NC(=N)N` [peramivir, (1S,2S,3R,4R)-3-[(1S)-1-(acetylamino)-2-ethylbutyl]-4-guanidino-2-hydroxycyclopentanecarboxylic acid], the solubility (pH 1.0) is given as “about 59 mg/ml”, the solubility (pH≥5) is given as no more than 20 mg/mL and the “oil-water partition coefficient LogP[n-octanol/water]” value [1] is given as −1.16.
